Patent publication US20070060646A1, “Acylhydrazone derivatives and the use thereof in the inhibition, regulation and/or modulation of kinase signal transduction” (priority 2003, published 2007)

Row | SMILES | melting point
1 | COc1cc(O)ccc1/C=N/NC(=O)Cc1ccc(F)cc1 [compound 12] | 184 to 185 °C
2 | COc1cccc(CC(=O)N/N=C/c2ccc(O)cc2OC)c1 [compound 4] | 166 to 167 °C
3 | COc1cc(O)ccc1/C=N/NC(=O)Cc1cccc(C(F)(F)F)c1 [compound 22] | 203 to 204 °C
4 | COc1cc(O)ccc1/C=N/NC(=O)Cc1cc(O)cc(O)c1 [compound 19] | 246 °C (dec.)
5 | COc1cc(O)ccc1/C=N/NC(=O)Cc1cccc(Cl)c1 [compound 11] | 121 to 122 °C
6 | COc1cccc(CC(=O)N/N=C/c2ccc(O)cc2)c1 [compound 15] | 162 to 163 °C
7 | COc1cccc(CCC(=O)N/N=C/c2ccc(O)cc2OC)c1 [compound 23] | 159 to 160 °C
8 | COc1cc(O)ccc1/C=N/NC(=O)Cc1ccc(F)cc1Cl [compound 13] | 242 to 243 °C
9 | COc1cc(O)ccc1/C=N/NC(=O)Cc1cccc([N+](=O)[O-])c1 [compound 26] | 240 to 241 °C
10 | COc1cccc(CC(=O)N/N=C/c2c(C)cc(O)cc2C)c1 [compound 16] | 172 to 173 °C
11 | COc1cccc(CC(=O)N/N=C(\C)c2ccc(O)cc2OC)c1 [compound 18] | 160 to 162 °C
12 | COc1cc(O)ccc1/C=N/NC(=O)Cc1ccccc1F [compound 41] | 213 to 215 °C
13 | COc1cccc(CC(=O)N/N=C/c2cc([N+](=O)[O-])ccc2O)c1 [compound 29] | 198 to 199 °C
14 | COc1cc(O)ccc1/C=N/NC(=O)Cc1ccccc1C [compound 9] | 119 to 120 °C
15 | CCOc1cc(O)ccc1/C=N/NC(=O)Cc1cccc(O)c1 [compound 38] | 190 to 192 °C
16 | O=C(Cc1ccccc1)N/N=C/c1ccc(O)c(F)c1 [compound 5] | 207 °C
17 | COc1cc(O)cc(C)c1/C=N/NC(=O)Cc1cccc(O)c1 [compound 40] | 194 to 195 °C

Row | SMILES | melting point
18 | COc1cc(O)ccc1/C=N/NC(=O)Cc1cccc(C)c1 [compound 8] | 207 to 208 °C
19 | COc1cc(O)ccc1/C=N/NC(=O)Cc1cccc(Br)c1 [compound 33] | 214 to 215 °C
20 | COc1cccc(CC(=O)N/N=C/c2cc(Cl)ccc2O)c1 [compound 28] | 178 to 179 °C
21 | COc1cccc(CC(=O)N/N=C/c2ccc(OC(C)=O)cc2OC)c1 [compound 21] | 147 to 148 °C
22 | COc1cccc(CC(=O)N/N=C/c2ccc(O)cc2O)c1 [compound 24] | 205 to 206 °C
23 | COc1cc(O)ccc1/C=N/NC(=O)Cc1ccccc1Cl [compound 10] | 134 to 135 °C
24 | COc1cc(O)ccc1/C=N/NC(=O)Cc1ccc(Cl)c(Cl)c1 [compound 7] | 232 to 233 °C
25 | COc1cc(O)ccc1/C=N/NC(=O)Cc1ccc(O)cc1 [compound 6] | 224 °C
26 | Cc1cc(O)ccc1/C=N/NC(=O)Cc1cccc(O)c1 [compound 37] | 203 to 204 °C
27 | COc1cc(O)ccc1/C=N/NC(=O)C(O)c1ccccc1 (stereo not shown) [compound 30] | 217 to 218 °C
28 | COc1cccc(OCC(=O)N/N=C/c2ccc(O)cc2OC)c1 [compound 25] | 173 to 174 °C
29 | COc1cc(O)ccc1/C=N/NC(=O)Cc1cc(F)cc(F)c1 [compound 36] | 224 to 225 °C
30 | COc1cc(O)ccc1/C=N/NC(=O)Cc1cccc(OS(C)(=O)=O)c1 [compound 35] | 132 °C
31 | COc1cc(O)ccc1/C=N/NC(=O)Cc1cccc(F)c1 [compound 14] | 111 to 112 °C
32 | COc1cccc(CC(=O)N/N=C/c2ccc(O)c(F)c2)c1 [compound 17] | 190 to 191 °C
33 | O=C(Cc1cccc(F)c1)N/N=C/c1ccc(O)c(F)c1 [compound 20] | 193 to 194 °C
34 | COc1cccc(CC(=O)N/N=C(\C)c2ccc(O)cc2)c1 [compound 34] | 162 to 164 °C
